According to ChEMBL document CHEMBL1201862, “PubChem BioAssay data set” (2004):
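Grown in 96-well plates, cells were treated for 48 hours with each compound at five concentrations. Insufficient inhibition: endpoint recorded as highest concentration tested. GI50: concentration for 50% inhibition of growth.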 Activity calls are given as the source filed them. Cut-off read from the data, not from the text of the source: active = GI50 up to about 1.1 µM and inactive = higher.

Key:
Experiment in all cases: NCI tumour cell line growth inhibition, 48 h
PC-3 = system: PC-3
MDA-MB-231 = system: MDA-MB-231
BT-549 = system: BT-549
TK-10 = system: TK-10
RPMI-8226 = system: RPMI-8226
HOP-62 = system: HOP-62
U-251 = system: U-251
SK-MEL-2 = system: SK-MEL-2
MOLT-4 = system: MOLT-4
OVCAR-3 = system: OVCAR-3
UACC-62 = system: UACC-62
HOP-92 = system: HOP-92
Malme-3M = system: Malme-3M
EKVX = system: EKVX
SNB-19 = system: SNB-19
NCI/ADR-RES = system: NCI/ADR-RES
HCC 2998 = system: HCC 2998
HT-29 = system: HT-29
NCI-H226 = system: NCI-H226

Measured: GI50

O=C1/C(=C/c2ccc(Cl)cc2)N=C(c2ccccc2)N1c1nc2ccc(Sc3ccccc3)cc2[nH]1
inactive: PC-3 30.6 µM | MDA-MB-231 35.2 µM | BT-549 21.7 µM | TK-10 23.8 µM | RPMI-8226 19.7 µM | HOP-62 40.3 µM | U-251 31.3 µM | SK-MEL-2 15.6 µM | MOLT-4 25.3 µM | OVCAR-3 35.8 µM | UACC-62 14 µM | HOP-92 45.9 µM | Malme-3M 23.4 µM | EKVX 36.3 µM | SNB-19 37.6 µM | NCI/ADR-RES 23.6 µM | HCC 2998 17.4 µM | HT-29 19.1 µM

CC(C)(C)c1ccc(O)c(CN(Cc2cc(C(C)(C)C)ccc2O)C2CCCCC2)c1
inactive: PC-3 17.5 µM | MDA-MB-231 18 µM | BT-549 19.8 µM | TK-10 17.7 µM | RPMI-8226 8.73 µM | HOP-62 18.5 µM | U-251 16.5 µM | SK-MEL-2 18.5 µM | MOLT-4 17.7 µM | OVCAR-3 18.2 µM | UACC-62 15.7 µM | HOP-92 16 µM | Malme-3M 15.8 µM | EKVX 17.5 µM | SNB-19 18 µM | NCI/ADR-RES 20.3 µM | HCC 2998 2.01 µM | HT-29 16.1 µM

CCCCCCCCCCCCN1[C@H]2CCC[C@H]2C(O)[C@@H]2CCC[C@@H]21 (some centres undefined)
inactive: PC-3 88.5 µM | MDA-MB-231 > 100 µM | BT-549 42.3 µM | RPMI-8226 > 100 µM | HOP-62 > 100 µM | U-251 77.4 µM | SK-MEL-2 > 100 µM | MOLT-4 > 100 µM | OVCAR-3 > 100 µM | UACC-62 > 100 µM | HOP-92 > 100 µM | SNB-19 > 100 µM | NCI/ADR-RES > 100 µM | NCI-H226 96.6 µM | HCC 2998 > 100 µM | HT-29 > 100 µM

CC1(C)CC(=O)C(=CN2C(=O)CNC2=S)C(=O)C1
inactive: PC-3 > 100 µM | MDA-MB-231 > 100 µM | BT-549 > 100 µM | TK-10 > 100 µM | HOP-62 > 100 µM | U-251 > 100 µM | SK-MEL-2 > 100 µM | MOLT-4 > 100 µM | OVCAR-3 > 100 µM | UACC-62 > 100 µM | HOP-92 > 100 µM | EKVX > 100 µM | SNB-19 > 100 µM | NCI/ADR-RES > 100 µM | NCI-H226 > 100 µM | HCC 2998 > 100 µM

N#CCCN(CCC#N)c1ccc(/C=C2\N=C(c3ccccc3)N(c3ccc(F)cc3)C2=O)cc1
inactive: PC-3 > 100 µM | MDA-MB-231 > 100 µM | BT-549 > 100 µM | TK-10 > 100 µM | RPMI-8226 > 100 µM | HOP-62 > 100 µM | U-251 > 100 µM | SK-MEL-2 > 100 µM | MOLT-4 > 100 µM | OVCAR-3 > 100 µM | UACC-62 > 100 µM | HOP-92 > 100 µM | Malme-3M > 100 µM | EKVX > 100 µM | SNB-19 > 100 µM | NCI/ADR-RES > 100 µM | NCI-H226 > 100 µM | HT-29 > 100 µM

CC12CCC([C@H](C(O)C3CCCCC3)C1=O)C2(C)C (some centres undefined)
inactive: PC-3 > 100 µM | MDA-MB-231 > 100 µM | BT-549 > 100 µM | TK-10 > 100 µM | RPMI-8226 49.4 µM | HOP-62 > 100 µM | U-251 > 100 µM | SK-MEL-2 > 100 µM | MOLT-4 44.3 µM | OVCAR-3 > 100 µM | UACC-62 > 100 µM | HOP-92 > 100 µM | EKVX > 100 µM | SNB-19 > 100 µM | NCI/ADR-RES > 100 µM | NCI-H226 > 100 µM | HCC 2998 > 100 µM

C[C@H]1[C@H]2[C@H]3CC[C@@H]4[C@@]5(C)CC[C@H](O)C(C)(C)[C@@H]5CC[C@@]4(C)[C@]3(C)C[C@H](O)[C@@]2(C)C[C@H]2O[C@]21C
inactive: PC-3 13.7 µM | MDA-MB-231 18 µM | BT-549 20.4 µM | TK-10 22.3 µM | RPMI-8226 19.4 µM | HOP-62 20.7 µM | U-251 17.2 µM | SK-MEL-2 19 µM | MOLT-4 27.5 µM | OVCAR-3 16.4 µM | UACC-62 23.2 µM | HOP-92 17.7 µM | Malme-3M 20 µM | EKVX 24.2 µM | SNB-19 20.6 µM | NCI/ADR-RES 18.5 µM | HCC 2998 17.5 µM | HT-29 14.3 µM

CC1(C)CCC2=C(O1)/C(=N\Nc1ccccc1)c1ccccc1C2=O
inactive: PC-3 24.1 µM | MDA-MB-231 25.4 µM | BT-549 35.4 µM | TK-10 17.8 µM | RPMI-8226 31.4 µM | HOP-62 35.4 µM | U-251 24.8 µM | SK-MEL-2 16 µM | MOLT-4 34 µM | OVCAR-3 24 µM | UACC-62 34.6 µM | HOP-92 24 µM | Malme-3M 43.9 µM | EKVX 20.9 µM | SNB-19 40.4 µM | NCI/ADR-RES 31.1 µM | NCI-H226 39.9 µM | HT-29 15.9 µM
